Experimental data taken from US20240317760A1, “TRK KINASE INHIBITOR COMPOUND AND USE THEREOF” (HENAN MEDINNO PHARMACEUTICAL TECHNOLOGY CO., LTD., priority 2021, published 2024).

Tests used:
Assay type in all cases: biochemical
[1] = target: T1, TRKA (Homo sapiens, UniProt P04629); assay: Determination of inhibitory activity against TRKA kinase (ADP-Glo Kinase Assay); settings: ATP 5 μM, Poly (4:1 Glu, Tyr) Peptide 0.03 mg/ml
T1 construct: purchased Carna 08-186
Description: (§1) Assay: Determination of Inhibitory Activity Against TRKA/B/C Kinases
(§2) 1× volume of 5× kinase reaction buffer and 4× volume of water; 5 mM MgCl2; and 1 mM DTT.
(§3) • 1). Gradiently diluting a compound 4-fold in a dilution plate with DMSO, with a starting compound concentration of 1000 nM. • 2). Diluting the compound 50-fold into 1× kinase reaction buffer and shaking it on a shaker for 20 minutes. • 3). Formulating 2× kinase with 1× of enzyme reaction buffer. • 4). Adding 2 μl kinase (formulated in step 3) to each well of the reaction plate. • 5). Adding 1 μl of the compound diluted in buffer to each well, sealing the plate with a sealing membrane and centrifuging the plate at 1000 g for 30 seconds and leaving it at room temperature for 10 minutes. • 6). Formulating 4×ATP & sub mixture with 1× enzyme reaction buffer and adding 1 μl of 4×ATP & sub mixture to the reaction plate. • 7). Sealing the plate with a sealing membrane and centrifuging the plate at 1000 g for 30 seconds and allowing it to react at room temperature for 60 minutes. • 8). Transferring 4 μl of ADP-Glo to 384 reaction plate and centrifuging the plate at 1000 rpm/min for 1 min, and then incubating it at 25° C. for 40 min. • 9). Transferring 8 μl of Detection solution to 384 reaction plate and centrifuging the plate at 1000 rpm/min for 1 min and incubating it at 25° C. for 40 min. • 10) Reading the RLU (Relative luminescence unit) signal using a Biotek multifunctional plate reader. The signal intensity was used to characterize the activity degree of kinase.
(§4) The IC50 (half inhibition concentration) of a compound was obtained using the following non-linear fitting equation, wherein data analysis was performed using Graphpad 6.0 software.
(§5) Y=Bottom+(Top−Bottom)/(1+10^((Log IC50−X)*Hill Slope)) • X: log value of compound concentration; and Y: inhibition rate (% inhibition)
(§6) Data were exported from Biotek and analyzed manually. The ratios were converted to inhibition rates and IC50 was calculated by Prism GraphPad 6.0 from the inhibition rates. IC50 was calculated again by the ratios to verify accuracy of the results.

[2] = target: T2, TRKB (Homo sapiens, UniProt Q16620); assay: Determination of inhibitory activity against TRKB kinase (ADP-Glo Kinase Assay); settings: ATP 20 μM, Poly (4:1 Glu, Tyr) Peptide 0.03 mg/ml
T2 construct: purchased SignalChem N17-11G
T2 sequence (Q16620 32-822): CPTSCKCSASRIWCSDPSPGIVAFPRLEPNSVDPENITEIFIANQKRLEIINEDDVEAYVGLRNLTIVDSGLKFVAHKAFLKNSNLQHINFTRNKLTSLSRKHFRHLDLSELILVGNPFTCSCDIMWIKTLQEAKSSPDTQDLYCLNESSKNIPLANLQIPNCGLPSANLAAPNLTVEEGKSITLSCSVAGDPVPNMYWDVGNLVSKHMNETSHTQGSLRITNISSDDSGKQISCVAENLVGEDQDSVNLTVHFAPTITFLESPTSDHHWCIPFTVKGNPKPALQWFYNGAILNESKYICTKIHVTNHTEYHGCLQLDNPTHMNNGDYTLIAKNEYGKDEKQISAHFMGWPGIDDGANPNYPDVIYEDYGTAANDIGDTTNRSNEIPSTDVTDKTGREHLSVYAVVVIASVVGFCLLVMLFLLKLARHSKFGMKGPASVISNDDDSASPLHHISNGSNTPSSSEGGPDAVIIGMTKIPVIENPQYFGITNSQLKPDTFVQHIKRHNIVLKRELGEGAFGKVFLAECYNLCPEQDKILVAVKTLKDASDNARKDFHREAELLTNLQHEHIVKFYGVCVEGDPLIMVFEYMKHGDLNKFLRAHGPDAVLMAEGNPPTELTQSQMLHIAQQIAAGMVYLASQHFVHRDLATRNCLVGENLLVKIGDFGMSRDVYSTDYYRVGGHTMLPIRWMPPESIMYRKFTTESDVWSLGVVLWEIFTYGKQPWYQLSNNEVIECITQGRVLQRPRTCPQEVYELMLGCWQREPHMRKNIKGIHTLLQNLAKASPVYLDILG
Description: as §1, §2, §3, §4, §5, §6

[3] = target: T3, TRKC (Homo sapiens, UniProt Q16288); assay: Determination of inhibitory activity against TRKC kinase (ADP-Glo Kinase Assay); settings: ATP 5 μM, Poly (4:1 Glu, Tyr) Peptide 0.03 mg/ml
T3 construct: purchased Carna 08-196
T3 sequence (Q16288 32-839): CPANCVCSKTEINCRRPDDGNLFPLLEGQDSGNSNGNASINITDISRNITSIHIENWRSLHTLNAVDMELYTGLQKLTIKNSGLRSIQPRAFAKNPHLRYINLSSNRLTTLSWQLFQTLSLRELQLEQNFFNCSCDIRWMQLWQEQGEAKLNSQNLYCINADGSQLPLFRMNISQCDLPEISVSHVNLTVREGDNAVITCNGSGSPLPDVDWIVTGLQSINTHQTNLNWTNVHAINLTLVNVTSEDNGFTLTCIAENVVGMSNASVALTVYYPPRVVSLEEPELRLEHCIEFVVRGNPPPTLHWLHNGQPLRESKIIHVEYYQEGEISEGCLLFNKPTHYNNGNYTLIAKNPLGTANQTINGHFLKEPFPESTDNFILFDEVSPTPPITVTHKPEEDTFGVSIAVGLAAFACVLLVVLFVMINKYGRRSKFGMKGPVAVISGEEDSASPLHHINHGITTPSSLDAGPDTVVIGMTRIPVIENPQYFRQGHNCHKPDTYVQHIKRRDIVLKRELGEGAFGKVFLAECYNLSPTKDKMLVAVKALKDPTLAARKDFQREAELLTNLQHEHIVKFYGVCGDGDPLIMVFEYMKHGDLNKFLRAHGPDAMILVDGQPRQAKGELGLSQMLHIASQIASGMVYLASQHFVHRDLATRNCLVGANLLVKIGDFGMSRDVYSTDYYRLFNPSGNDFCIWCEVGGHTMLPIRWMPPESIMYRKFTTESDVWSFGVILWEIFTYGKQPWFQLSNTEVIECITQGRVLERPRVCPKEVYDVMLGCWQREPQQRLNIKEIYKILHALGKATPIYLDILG
Description: as §1, §2, §3, §4, §5, §6

T1 sequence (P04629 33-796): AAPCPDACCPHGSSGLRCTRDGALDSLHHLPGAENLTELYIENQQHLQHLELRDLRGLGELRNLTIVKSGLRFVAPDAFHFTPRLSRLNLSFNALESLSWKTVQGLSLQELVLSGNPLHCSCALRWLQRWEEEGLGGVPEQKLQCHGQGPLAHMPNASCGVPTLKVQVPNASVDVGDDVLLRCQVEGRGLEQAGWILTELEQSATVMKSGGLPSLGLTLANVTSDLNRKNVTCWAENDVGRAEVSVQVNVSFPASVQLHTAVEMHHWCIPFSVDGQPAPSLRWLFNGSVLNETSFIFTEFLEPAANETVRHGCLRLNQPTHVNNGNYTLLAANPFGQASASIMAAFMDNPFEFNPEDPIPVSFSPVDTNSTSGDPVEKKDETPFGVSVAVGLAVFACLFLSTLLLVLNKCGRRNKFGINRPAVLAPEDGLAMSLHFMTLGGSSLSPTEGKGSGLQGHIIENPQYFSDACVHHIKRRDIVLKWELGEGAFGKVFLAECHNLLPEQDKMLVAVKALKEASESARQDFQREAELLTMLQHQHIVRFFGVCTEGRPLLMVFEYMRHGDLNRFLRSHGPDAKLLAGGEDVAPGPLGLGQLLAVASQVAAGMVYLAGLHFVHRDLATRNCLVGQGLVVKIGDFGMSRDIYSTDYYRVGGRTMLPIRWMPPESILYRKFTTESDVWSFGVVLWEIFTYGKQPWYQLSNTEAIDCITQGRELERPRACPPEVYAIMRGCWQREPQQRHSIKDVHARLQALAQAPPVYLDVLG

Row | Compound | IC50 [1] | IC50 [2] | IC50 [3]
1 | CC(Nc1ccc2[nH]nc(-c3nc4c([nH]3)CNC4)c2c1)c1cc(F)cc(F)c1 (stereo not drawn) [Example 1] | 1.8 nM | 2.8 nM | 5.5 nM
2 | Fc1cc(F)cc(CNc2ccc3[nH]nc(-c4nc5c([nH]4)CN(CC4CCNCC4)C5)c3c2)c1 [Example 2, N-(3,5-difluorobenzyl)-3-(5-(piperidin-4-ylmethyl)-1,4,5,6-tetrahydropyrrolo[3,4-d]imidazol-2-yl)-1H-indazol-5-amine] | 3.5 nM | 3.4 nM | 3.3 nM
3 | CS(=O)(=O)N1Cc2nc(-c3n[nH]c4ccc(Cc5cc(F)cc(F)c5)cc34)[nH]c2C1 [Example 3, 5-(3,5-difluorobenzyl)-3-(5-(methylsulfonyl)-1,4,5,6-tetrahydropyrrolo[3,4-d]imidazol-2-yl)-1H-indazole] | 6.4 nM | 5.5 nM | 11 nM
4 | CC(Oc1ccc2[nH]nc(-c3nc4c([nH]3)CN(C3CCN(C)CC3)C4)c2c1)c1cc(F)cc(F)c1 (stereo not drawn) [Example 4, 5-(1-(3,5-difluorophenyl)ethoxy)-3-(5-(1-methylpiperidin-4-yl)-1,4,5,6-tetrahydropyrrolo[3,4-d]imidazol-2-yl)-1H-indazole] | 2 nM | 2.4 nM | 3.1 nM
5 | CC(Oc1ccc2[nH]nc(-c3nc4c([nH]3)CN(C(=O)N(C)C)C4)c2c1)c1cc(F)cc(F)c1 (stereo not drawn) [Example 5, 2-(5-(1-(3,5-difluorophenyl)ethoxy)-1H-indazol-3-yl)-N,N-dimethyl-4,6-dihydropyrrolo[3,4-d]imidazole-5(1H) formamide] | 2.3 nM | 2.1 nM | 3.1 nM
6 | CC(Oc1ccc2[nH]nc(-c3nc4c([nH]3)CN(C(=O)OCCN(C)C)C4)c2c1)c1cc(F)cc(F)c1 (stereo not drawn) [Example 6, 2-(Dimethylamino)ethyl 2-(5-(1-(3,5-difluorophenyl)ethoxy)-1H-indazol-3-yl)-4,6-dihydropyrrolo[3,4-d]imidazole-5(1H)-carboxylate] | 0.97 nM | 3.2 nM | 1.4 nM
7 | CC(Oc1ccc2[nH]nc(-c3nc4c([nH]3)CN(C(=O)C3CCN(C)CC3)C4)c2c1)c1cc(F)cc(F)c1 (stereo not drawn) [Example 7, (2-(5-(1-(3,5-difluorophenyl)ethoxy)-1H-indazol-3-yl)-4,6-dihydropyrrolo[3,4-d]imidazol-5(1H)-yl)(1-methylpiperidin-4-yl)ketone] | 1.4 nM | 3.4 nM | 1.3 nM
8 | CC(Oc1ccc2[nH]nc(-c3nc4c([nH]3)CN(C3CCN(C)CC3)CC4)c2c1)c1cc(F)cc(F)c1 (stereo not drawn) [Example 8, 2-(5-(1-(3,5-difluorophenyl)ethoxy)-1H-indazol-3-yl)-5-(1-methylpiperidin-4-yl)-4,5,6,7-tetrahydro-3H-imidazo[4,5-c]pyridine] | 0.7 nM | 2.8 nM | 1.6 nM
9 | C[C@H](Oc1ccc2[nH]nc(-c3nc4c([nH]3)CN(CC3CCN(C)CC3)C4)c2c1)c1cc(F)cc(F)c1 [Example 9] | 1.7 nM | 28 nM | 4.6 nM
10 | CC(Oc1ccc2[nH]nc(-c3nc4c([nH]3)CN(C(=O)OC3CCN(C)CC3)C4)c2c1)c1cc(F)cc(F)c1 (stereo not drawn) [Example 10, 1-Methylpiperidin-4-yl-2-(5-(1-(3,5-difluorophenyl)ethoxy)-1H-indazol-3-yl)-4,6-dihydropyrrolo[3,4-d]imidazole-5(1H)-carboxylate] | 0.77 nM | 2.5 nM | 1.3 nM
11 | CC(Nc1ccc2[nH]nc(-c3nc4c([nH]3)CN(CC3CCNCC3)C4)c2c1)c1cc(F)cc(F)c1 (stereo not drawn) [Example 11, N-(1-(3,5-difluorophenyl)ethyl)-3-(5-(piperidin-4-ylmethyl)-1,4,5,6-tetrahydropyrrolo[3,4-d]imidazol-2-yl)-1H-indazol-5-amine] | 1.4 nM | 2.2 nM | 2.4 nM
12 | O=C(C1CC1)N1Cc2nc(-c3n[nH]c4ccc(Cc5cc(F)cc(F)c5)cc34)[nH]c2C1 [Example 13, Cyclopropyl(2-(5-(3,5-difluorobenzyl)-1H-indazol-3-yl)-4,6-dihydropyrrolo [3,4-d]imidazol-5(1H)-yl)ketone] | 6.9 nM | 4.4 nM | 9.2 nM
13 | CN1CCC(N2Cc3nc(-c4n[nH]c5ccc(Cc6cc(F)cc(F)c6)cc45)[nH]c3C2)CC1 [Example 14, 5-(3,5-Difluorobenzyl)-3-(5-(1-methylpiperidin-4-yl)-1,4,5,6-tetrahydropyrrolo[3,4-d]imidazol-2-yl)-1H-indazole] | 3.5 nM | 9.5 nM | 11.5 nM
14 | CC(Oc1ccc2[nH]nc(-c3nc4c([nH]3)CN(CC3CCN(C)CC3)C4)c2c1)c1cc(F)cc(F)c1 (stereo not drawn) [Example 15] | 0.75 nM | 0.65 nM | 0.86 nM
15 | CC(Oc1ccc2[nH]nc(-c3nc4c([nH]3)CN(CC3CCNCC3)C4)c2c1)c1cc(F)cc(F)c1 (stereo not drawn) [Example 16, 5-(1-(3,5-Difluorophenyl)ethoxy)-3-(5-(piperidin-4-ylmethyl)-1,4,5,6-tetrahydropyrrolo[3,4-d]imidazol-2-yl)-1H-indazole] | 1.3 nM | 1.9 nM | 1.8 nM
16 | CCN1CCC(CN2Cc3nc(-c4n[nH]c5ccc(OC(C)c6cc(F)cc(F)c6)cc45)[nH]c3C2)CC1 (stereo not drawn) [Example 17] | 0.66 nM | 4.2 nM | 1.5 nM
17 | CC(Oc1ccc2[nH]nc(-c3nc4c([nH]3)CN(CCN(C)C)C4)c2c1)c1cc(F)cc(F)c1 (stereo not drawn) [Example 18, 2-(2-(5-(1-(3,5-Difluorophenyl)ethoxy)-1H-indazol-3-yl)-4,6-dihydropyrrolo[3,4-d]imidazol-5(1H)-yl)-N,N-dimethyl ethan-1-amine] | 0.8 nM | 1.1 nM | 1.5 nM
18 | CC(=O)N1CCC(CN2Cc3nc(-c4n[nH]c5ccc(OC(C)c6cc(F)cc(F)c6)cc45)[nH]c3C2)CC1 (stereo not drawn) [Example 19, 1-(4-((2-(5-(1-(3,5-Difluorophenyl)ethoxy)-1H-indazol-3-yl)-4,6-dihydropyrrolo[3,4-d]imidazol-5(1H)-yl)methyl)piperidin-1-yl)ethan-1-one] | 1.2 nM | 4.8 nM | 4.1 nM
19 | CC(Oc1ccc2[nH]nc(-c3nc4c([nH]3)CN(CC3CCN(C)C3)C4)c2c1)c1cc(F)cc(F)c1 (stereo not drawn) [Example 20] | 1.5 nM | 4 nM | 2.9 nM
20 | CC(Oc1ccc2[nH]nc(-c3nc4c([nH]3)CN(CCC3CCN(C)CC3)C4)c2c1)c1cc(F)cc(F)c1 (stereo not drawn) [Example 21, 5-(1-(3,5-Difluorophenyl)ethoxy)-3-(5-(2-(1-methylpiperidin-4-yl)ethyl)-1,4,5,6-tetrahydropyrrolo[3,4-d]imidazol-2-yl)-1H-indazole] | 1.8 nM | 6.8 nM | 2.5 nM
21 | CC(Oc1ccc2[nH]nc(-c3nc4c([nH]3)CN(CC3CCN(C(C)C)CC3)C4)c2c1)c1cc(F)cc(F)c1 (stereo not drawn) [Example 22] | 0.47 nM | 0.82 nM | 0.51 nM
22 | CC(Oc1ccc2[nH]nc(-c3nc4c([nH]3)CN(C(C)C3CCN(C)CC3)C4)c2c1)c1cc(F)cc(F)c1 (stereo not drawn) [Example 23, 5-(1-(3,5-Difluorophenyl)ethoxy)-3-(5-(1-(1-methylpiperidin-4-yl)ethyl)-1,4,5,6-tetrahydropyrrolo[3,4-d]imidazol-2-yl)-1H-indazole] | 0.59 nM | 1.5 nM | 1.1 nM
